According to patent US20240166658A1, “PORPHYRIN DERIVATIVES AND USES THEREOF” (University of Tasmania, priority 2021, published 2024):

Tests used:
[1] = UV-Vis host-guest titration, association constant; assay type: binding; conditions: host (9) in dichloromethane; triplicate, TBA salt and acid; Bindfit
Procedure: Path length of the quartz cell was 1 cm. For UV-vis titrations, a stock solution of host was prepared (2.2×10^−3 M) in dichloromethane (DCM) and serially diluted to the required concentrations. Working solutions of tetrabutylammonium (TBA) anion salts or guest molecules were prepared in the same manner Host−guest titrations used solutions of guest prepared in the working concentration of host solution, according to the procedure of Thordarson, 2011.
UV-vis spectroscopic host−guest titrations were performed in accordance with the methodologies of Thordarson, 2011. Solutions of host in dichloromethane were prepared. Solutions of guest were then prepared in the host solution. Aliquots of guest in host solution were added to host solution and sequentially analysed until a known molar equivalent of guest was added. The amount of guest added per aliquot was ascertained by a preliminary screening experiment; strong association constants required smaller molar equivalents so more information could be collected. By way of example, host (9) responded to 0.1 molar equivalent of PFBA strongly, so an addition of 1 molar equivalent of PFBA would result in a loss of information. The inverse is true for weaker binding interactions. […]
A host solution of host (9) in dichloromethane was monitored using UV-Vis analysis as 0.5-10 equivalents of each PFAS was added. […]

Filter paper tests = conditions: aqueous PFOA in the <5 ppm range, dipped or dropped
Procedure: Sensor molecule (9) was dissolved in dichloromethane and filter papers were soaked in the solution. The papers were removed and dried by evaporation. The paper was then dipped into aqueous solutions of PFOA or aqueous solutions were dropped onto the paper. […] The aqueous solutions of PFOA tested were in the <5 ppm range.

[2] = Colorimetric matching of mixed PFCA samples, low concentration
Procedure: In the “low” PFCA concentration experiment, the RGB response values had the greatest rate of change from 0-40 ppb PFOA and appeared to level out between 40-80 ppb PFOA. In that instance, the regression was fit for a host : guest ratio of 0-0.8. To probe the sensor's response to a mixture of PFCAs, samples containing combinations of PFHxA, PFHpA, and PFDA in dichloromethane (7-28 ppb) were prepared and the RGB responses were collected. The PFCA concentrations for the samples were predicted using the PFOA regression (y=0.0591 ln(x)+0.037, R^2=0.9771).
The lowest concentration PFCA sample (7 ppb) was predicted to be ca. 11 ppb (58% error) from the PFOA regression, whilst the higher concentration mixed PFCA samples (14.1 and 28.8 ppb) were predicted to be ca. 16 and 23 ppb (17 and 18% error respectively). Thus, host (12) may be coupled with a phone camera to estimate mixed PFCA concentrations from RGB data with <20% error, or used visually for threshold detection of total PFCA concentrations above 10 ppb.

[3] = Colorimetric matching of a PFCA sample, organic; conditions: CIE76
Procedure: To probe the sensitivity of this technique visually, a colour chart based on the response of host (12) to known concentrations of PFOA was tested against another PFCA. The PFCA was chosen to be PFHxA, as PFOA was used for the calibration process. Samples of PFHxA (4 ppm) were prepared and combined with host (12). The average colour from triplicate experiments was compared to a calibration chart. The RGB values for host (12) were collected at six concentrations of PFOA. To make a direct comparison to the 4 ppm PFHxA sample, a colour chart was generated by fitting four colour points between the measured values for 0 and 5 ppm of PFOA. The generated RGB value for the 4 ppm PFOA was then compared to the measured RGB value for the 4 ppm PFHxA sample. […] The 3 and 5 ppm PFOA colours had ΔE values of 10.3 and 9.5 respectively, making the 4 ppm colour the most suitable match.

[4] = RGB response curve, high PFCA concentration; conditions: host 5.01×10^−6 M, dichloromethane
Text: The present inventors investigated the colorimetric responses for host (12) with “high” concentrations of PFCA (where [host]<[guest]), and “low” concentrations of PFCA (where [host]>[guest]). Generally, RGB response values will increase with increasing concentrations of PFCA until the host has been saturated; beyond the saturation limit, RGB response values are similar. When there was an excess of guest, the response values could only be used as a threshold indication for PFCA concentrations.
RGB response curves were established by combining solutions of host (12) (5.01×10^−6 M) with solutions of PFOA (0-16 ppm, 3.86×10^−5 M) in dichloromethane. […] Thus, when establishing a calibration curve, the relative proportion of free host to host−PFCA complex limiting the variability of colour response must be considered for the application.
For the “high” PFCA concentration experiment, the PFOA generated calibration curve (y=0.0401 ln(x)+0.2366, R^2=0.9677) (FIG. 17) begins to level out at ca. 2 ppm. Above that concentration, the RGB response values are difficult to differentiate.

Structure (SMILES) | K value (averaged association constant Ka) [1] | colour change of host-soaked filter paper (Filter paper tests) | average ΔE of mixed PFCA samples vs host solution ([2]; 7-28 ppb) | concentration predicted from PFOA regression ([2]; 7 ppb PFCA sample) | concentration predicted from PFOA regression ([2]; 14.1 ppb mixed PFCA sample) | concentration predicted from PFOA regression ([2]; 28.8 ppb mixed PFCA sample) [ppb] | ΔE (Host − PFCA) ([2]; PFCAs 7 ppb) | ΔE (Host − PFCA) ([2]; PFCAs 14 ppb) | ΔE (Host − PFCA) ([2]; PFCAs 28 ppb) | ΔE, PFOA chart colour vs 4 ppm PFHxA sample ([3]; 3 ppm PFOA colour) | ΔE, PFOA chart colour vs 4 ppm PFHxA sample ([3]; 4 ppm PFOA colour) | ΔE, PFOA chart colour vs 4 ppm PFHxA sample ([3]; 5 ppm PFOA colour) | PFOA concentration at which calibration curve begins to level out [4]
O=C(Nc1ccccc1-c1c2nc(c(-c3ccccc3NC(=O)C(F)(F)C(F)(F)C(F)(F)C(F)(F)C(F)(F)C(F)(F)C(F)(F)F)c3ccc([nH]3)c(-c3ccccc3NC(=O)C(F)(F)C(F)(F)C(F)(F)C(F)(F)C(F)(F)C(F)(F)C(F)(F)F)c3nc(c(-c4ccccc4NC(=O)C(F)(F)C(F)(F)C(F)(F)C(F)(F)C(F)(F)C(F)(F)C(F)(F)F)c4ccc1[nH]4)C=C3)C=C2)C(F)(F)C(F)(F)C(F)(F)C(F)(F)C(F)(F)C(F)(F)C(F)(F)F [host (9), α,α,α,α-5,10,15,20-tetrakis(2-(pentadecafluorooctanoylamino)phenyl)porphyrin] | 12999 | A colour change was discernible | – | – | – | – | – | – | – | – | – | – | –
O=C(Nc1ccccc1-c1c2nc(c(-c3ccccc3NC(=O)C(F)(F)C(F)(F)C(F)(F)C(F)(F)C(F)(F)C(F)(F)C(F)(F)C(F)(F)C(F)(F)C(F)(F)C(F)(F)F)c3ccc([nH]3)c(-c3ccccc3NC(=O)C(F)(F)C(F)(F)C(F)(F)C(F)(F)C(F)(F)C(F)(F)C(F)(F)C(F)(F)C(F)(F)C(F)(F)C(F)(F)F)c3nc(c(-c4ccccc4NC(=O)C(F)(F)C(F)(F)C(F)(F)C(F)(F)C(F)(F)C(F)(F)C(F)(F)C(F)(F)C(F)(F)C(F)(F)C(F)(F)F)c4ccc1[nH]4)C=C3)C=C2)C(F)(F)C(F)(F)C(F)(F)C(F)(F)C(F)(F)C(F)(F)C(F)(F)C(F)(F)C(F)(F)C(F)(F)C(F)(F)F [host (12), α,α,α,α-5,10,15,20-tetrakis(2-(tricosafluorododecanoylamino)phenyl) porphyrin] | – | – | > 10 | ca. 11 ppb | ca. 16 ppb | ~23 | 11 | 11 | 12 | 10.3 | 7.3 | 9.5 | ca. 2 ppm
